Measurements as given in patent publication US9572760B2, “Uses of compounds and mixtures from Antrodia cinnamomea mycelia” (Simpson Biotech Co., Ltd., priority 2013, dated 2017).

Key:
[1] = target: T1, tyrosinase (Mus musculus, UniProt P11344); assay: Cellular tyrosinase activity assay (L-DOPA oxidation) in B16F10 cells exposed to UV; type: cell-based, murine; conditions: UV alone 52.55±4.36% increase over non-UV control (3.0±0.5 U/mg protein)
T1 construct: endogenous in cells; host or cells: B16F10 murine melanoma cells (ATCC), total cell lysate
T1 sequence (P11344 19-533): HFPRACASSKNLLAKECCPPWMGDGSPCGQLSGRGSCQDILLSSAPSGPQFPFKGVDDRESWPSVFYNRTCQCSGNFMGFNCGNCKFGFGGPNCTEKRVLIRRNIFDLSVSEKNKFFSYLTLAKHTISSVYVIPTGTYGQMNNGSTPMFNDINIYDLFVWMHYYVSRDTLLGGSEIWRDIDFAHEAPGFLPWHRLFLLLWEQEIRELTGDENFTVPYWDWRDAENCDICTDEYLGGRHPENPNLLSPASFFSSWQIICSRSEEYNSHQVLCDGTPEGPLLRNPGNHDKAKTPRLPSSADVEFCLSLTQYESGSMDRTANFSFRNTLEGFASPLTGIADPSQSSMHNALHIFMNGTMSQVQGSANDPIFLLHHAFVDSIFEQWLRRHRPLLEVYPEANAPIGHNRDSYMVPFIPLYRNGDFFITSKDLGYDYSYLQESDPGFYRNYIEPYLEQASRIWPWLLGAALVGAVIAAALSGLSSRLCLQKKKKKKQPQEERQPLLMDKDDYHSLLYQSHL
From the text: (§1) The dermal fibroblast cell line CG1639 was obtained from the BCRC (Bioresource Collection and Research Center) and cultured in Dulbecco's modified Eagle media (DMEM, Gibco by Invitrogen) with 1% antibiotic antimycotic (Gibco by Invitrogen) and 15% fetal bovine serum (Gibco by Invitrogen). The fetal rat skin keratinocyte, FRSK cell line was obtained from the Japan HSRRB (Health Science Research Resources Bank) and cultured in Eagle's minimal essential media (MEM, Gibco by Invitrogen) supplemented with 10% fetal bovine serum (FBS) (Gibco by Invitrogen) and 1% antibiotic antimycotic (Gibco by Invitrogen). B16F10 cells, a murine melanoma cell line, were purchased from American Type Culture Collection (ATCC, Rockville, Md., USA) and was cultured in Eagle's Minimum Essential Medium (MEM; Sigma, St. Louis, Mo.) supplemented with 10% fetal bovine serum (FBS; HyClone Lab. Inc., Logan, Utah), 0.02% antibiotic-antimycotic liquid (penicillin, 10 000 U mL^−1; streptomycin, 10 000 μg mL^−1 and amphotericin B, 25 μg mL^−1; Invitrogen, Carlsbad, Calif.).
To investigate the induction of melanogenesis and the oxidative stress by direct UV irradiation, melanoma cells and keratocytes were irradiated with 8 J cm^−2 of UVA (FL15BLB, 352 nm, 15 W; Toshiba, Tokyo, Japan) and 10 mJ cm^−2 of UVB (G15T8E, 306 nm, 15 W; Sankyo Denki, Tokyo, Japan) in a HANKS' balanced salt solution (Sigma). The UV intensity was measured by using a Model UVX Digital Radiometer (UVP Inc., Upland, Calif.).
B16F10 and FRSK cells were exposed to Hepasim compounds A-D by two different concentrations (3 or 10 μM) for 72 hrs prior to UVA irradiation. DMEM was replaced with phosphate buffered saline (PBS) to avoid generation of medium-derived toxic photoproducts prior to UV irradiation. Cells were collected 24 hrs after UVA irradiation and assayed. For preparation of cell lysate, the harvested cells were pelleted by centrifugation and lysed in lysis buffer containing 50 mM Tris-HCl, 10 mM ethylene diaminetetraacetic acid (EDTA), 1% (v/v) Tri-ton X-100, phenylmethylsulfonyl fluoride (PMSF) (100 mg/ml) and pepstatin A (1 mg/ml) in DMSO and leupeptin (1 mg/ml) in H2O, pH 6.8. The cells were centrifuged at 10,000 rpm for 10 min and the total cell lysate was collected and stored at −80° C.
The rate of L-DOPA oxidation was measured to assess cellular tyrosinase activity in B16F10 cells exposed to UV. The assay was performed as below described, 20 mM L-DOPA used as the substrates was added to each lysate in a 96-well plate and absorbance of dopachrome formation was measured spectrophotometrically at 475 nm every 10 min for 1 h at 37° C. by a spectrophotometer. The tyrosinase activity was calculated by comparison to a standard curve using tyrosinase (2034 U/mg) and was expressed as unit/mg protein. The data are expressed as a percentage of the tyrosinase activity (unit/mg protein) of non-irradiated and untreated control cells (100%).

[2] = test system: Dermal fibroblast, CG1639 cells; assay: Profibrogenic gene expression in dermal fibroblast cell line (qRT-PCR); type: cell-based; conditions: two concentrations, 72 hrs
From the text: as §1
Reverse transcription reaction was performed using a commercially available set of High Capacity RNA-to-cDNA Kit (Applied Biosystems, USA). cDNA was prepared from 2 μg of total RNA per 20 μl reaction, according to the manufacturer's instructions—37° C. for 60 minutes, 95° C. for 5 minutes, and hold at 4° C. The resulting cDNA was to a final concentration of 100 ng/μl and constituted a matrix in further experiments.
Amplification and detection the gene expression by real-time PCR were performed using StepOne plus Real-time PCR System (Applied Biosystems, USA). Samples were assayed in a 10 μl reaction mixture containing 2 μl of template DNA, 5 μl of 2× TaqMan PCR Master Mix (Applied Biosystems, Life Technologies, Foster City, Calif., USA), 0.5 μl of 20× assay mix containing probe, forward and reverse primer (Applied Biosystems, Life Technologies, Foster City, Calif., USA), whereby qPCR targets with the following information were used: (a) α-SMA, Assay ID Rn01759928_g1, (b) TIMP-1, Assay ID Rn00587558_m1, (c) TGF-β1, Assay ID Rn00572010_m1, (d) Collagen I, Assay ID Rn 01463838_m1, (e) GAPDH, Assay ID Rn1462662_g1. To control variation in mRNA concentration, all results were normalized to the housekeeping gene, GAPDH. Relative quantitation was performed using the comparative ΔΔCt method according to the manufacturer's instructions. The cycling conditions used were as follows: 50° C. for 2 min, 95° C. for 10 min followed by 40 cycles of 95° C. for 15 s and 60° C. for 1 min each.
Dermal fibroblast, CG1639 cells, were exposed to Hepasim compounds by two different concentrations for 72 hrs. Then, RNA was extracted and subsequent real-time quantitative PCR Collagen-1, TGF-β1, α-SMA and TIMP-1 mRNA were measured.

Compound	tyrosinase activity in UV-irradiated B16F10 cells ([1]; 3 μM)	tyrosinase activity in UV-irradiated B16F10 cells ([1]; 10 μM)	All-4 profibrogenic gene expression (Collagen-1, TGF-β1, α-SMA, TIMP-1) [2]	dose dependence of profibrogenic gene down-regulation [2]
CC(C)=CCOc1ccc(C2=C(CC(C)C)C(=O)N(O)C2=O)cc1 [Compound C, 3-isobutyl-4-[4-(3-methyl-2-butenyloxy)phenyl]-1H-pyrrol-1-ol-2,5-dione]	48.55±3.7%	40.55±3.9%	down-regulated significantly	dose-dependent effect
CC(C)=CCOc1ccc(C2=C(CC(C)C)C(=O)NC2=O)cc1 [Compound B, 3-isobutyl-4-[4-(3-methyl-2-butenyloxy)phenyl]-1H-pyrrol-2,5-dione]	51.65±4.6%	42.32±6.7%	down-regulated significantly	dose-dependent effect
